One may read the IC50 as the concentration that gives 50% inhibition.

The target in the experiment is CXCR2 (Homo sapiens (Human), UniProt P25025). Put plainly: Inhibition of CXCR2-mediated (GROα-induced) intracellular calcium release in human neutrophils (whole cell assay, Pharmacology Example 1). In kind it is cell-based. Particulars: GROα 25 nM. On the procedure:
Briefly, human neutrophils were suspended in HBSS^− (without Ca^2+ and Mg^2+) containing 10 mM HEPES and FLIPR Calcium 3 dye (3.1×10^7 cells in total volume 1.7 mL). Cells were aliquoted (200 μL of the cell suspension per tube, 8 tubes total) and 2 μL of compound 9 (with appropriate dilutions) were added to each of 6 tubes. The tested concentrations of compound 9 were 156 nM, 312 nM, 625 nM, 1250 nM, 2500 nM and 5000 nM. As controls, 2 μL of DMSO (1% final concentration) were added to 2 other tubes. Cells were incubated for 30 min at 37° C. After dye loading, tubes were centrifuged at 6,000 rpm for 1 min, supernatant was removed and the cell pellet was re-suspended in 200 μL of HBSS^+ (with Ca^2+ and Mg^2+) containing 10 mM HEPES. The test compound or DMSO (control) was added again at the same concentrations that were used during cell loading. The cell suspension was aliquoted into a 96-well Reading Plate (Corning) in a volume of 90 μL (10^5 cells/well). The Compound Plate contained agonist (GROα in HBSS^−) or HBSS^− (control). After 15 sec of reading the basal level of fluorescence by FlexStation II, 10 μL of GROα or HBSS^− were automatically transferred from the Compound Plate into the Reading Plate (final concentration of GROα was 25 nM). Changes in fluorescence were monitored (λex=485 nm, λem=525 nm) every 5 s for 240 to 500 s at room temperature.
The maximum change in fluorescence, expressed in arbitrary units over baseline (Max-Min), was used to determine the GROα response. The effect of each compound on the GROα response was normalized and expressed as a percent of the DMSO control, which was designated as “100% response.” Curve fitting and calculation of the compound inhibitory concentration that reduces the level of the GROα response by 50% (IC50), or the compound agonist concentration that increases the level of the calcium release by 50% of the maximum agonist-induced change (EC50) were determined by nonlinear regression analysis of the dose-response curves generated using Prism 4 (GraphPad Software, Inc., San Diego, Calif.).

[1] abbreviates: FLIPR Calcium 3 dye, read-out: Inhibition of CXCR2 IC50.
The mark [2] stands for this setting: value in synthesis example, read-out: IC50 in whole cell assay (Pharmacology Example 1).

Where two headings read alike, the source gives them in different places.

CXCR2, sequence (P25025 whole entry): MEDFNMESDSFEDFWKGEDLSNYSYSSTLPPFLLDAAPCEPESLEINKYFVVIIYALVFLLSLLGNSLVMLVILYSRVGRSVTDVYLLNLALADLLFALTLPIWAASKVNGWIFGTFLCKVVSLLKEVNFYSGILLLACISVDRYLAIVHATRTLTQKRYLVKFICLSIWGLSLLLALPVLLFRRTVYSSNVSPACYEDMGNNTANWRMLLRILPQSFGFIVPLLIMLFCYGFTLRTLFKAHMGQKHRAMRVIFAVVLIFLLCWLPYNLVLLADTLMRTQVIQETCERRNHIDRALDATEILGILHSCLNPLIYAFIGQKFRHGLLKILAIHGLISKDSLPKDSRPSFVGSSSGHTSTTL

With `O=C(Nc1ccc(F)cc1)c1ccc(NCc2ccccc2B(O)O)nc1` [Compound 10], the IC50 worked out at 1700 ± 200 nM under setting [1] and 1700 ± 200 nM under setting [2].
Consider `CN(Cc1ccc(B(O)O)cc1)c1ncc(C(=O)Nc2ccc(F)cc2)cn1` [Compound 19], for which the IC50 was 244 ± 150 nM under setting [1] and 244 ± 15 nM under setting [2].
On to `CN(Cc1ccccc1O)c1ccc(C(=O)Nc2ccc(F)cc2)cn1` [Compound 9], for which the IC50 was 586 ± 910 nM under setting [1]; 586 ± 91 nM (read-out: IC50, inhibition of CXCR2-mediated intracellular calcium release); 590 ± 90 nM under setting [2].
`CN(Cc1ccc(B(O)O)cc1)c1ccc(C(=O)Nc2ccc(F)cc2)cn1` [Compound 18]: the IC50 was found to be 247 ± 350 nM under setting [1] and 247 ± 35 nM under setting [2].
As for `CN(Cc1ccccc1B(O)O)c1ccc(C(=O)Nc2ccc(F)cc2)cn1` [Compound 8], the IC50 runs as follows: under setting [1], 1000 ± 200 nM; under setting [2], 3700 ± 600 nM.

(Values after patent publication USRE47740E1, “Aminopyridinecarboxamides as CXCR2 modulators” (Syntrix Biosystems Inc., priority 2010, dated 2019).)
